Experimental findings from ChEMBL document CHEMBL1150848, “Radiosumin B, an unusual dipeptide from the cyanobacterium Microcystis aeruginosa” (J Nat Prod, 2001) are described below.

Assay [1] deals with Plasminogen (Homo sapiens) (UniProt P00747). The experiment in a line: Inhibition of plasmin.
The nature of assay [2]: Inhibition of trypsin.

Activity calls are given as the source filed them. The rule behind the calls is not given here.

Chain of Plasminogen (Homo sapiens) (P00747 97-580 limits assumed): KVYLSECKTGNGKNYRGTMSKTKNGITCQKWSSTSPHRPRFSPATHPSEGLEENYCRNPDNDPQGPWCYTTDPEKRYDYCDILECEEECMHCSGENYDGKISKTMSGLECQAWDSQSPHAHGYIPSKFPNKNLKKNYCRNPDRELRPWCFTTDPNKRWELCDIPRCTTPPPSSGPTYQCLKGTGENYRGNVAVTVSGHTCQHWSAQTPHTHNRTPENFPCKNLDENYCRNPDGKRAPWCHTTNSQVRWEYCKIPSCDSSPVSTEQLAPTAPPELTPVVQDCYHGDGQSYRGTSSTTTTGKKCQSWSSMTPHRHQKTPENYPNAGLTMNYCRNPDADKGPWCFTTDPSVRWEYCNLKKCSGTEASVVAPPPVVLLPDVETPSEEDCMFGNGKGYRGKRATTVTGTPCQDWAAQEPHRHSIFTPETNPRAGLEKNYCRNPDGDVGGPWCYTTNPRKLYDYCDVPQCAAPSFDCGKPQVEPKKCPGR
Chain of Plasminogen (Homo sapiens) (P00747 581-810 limits assumed): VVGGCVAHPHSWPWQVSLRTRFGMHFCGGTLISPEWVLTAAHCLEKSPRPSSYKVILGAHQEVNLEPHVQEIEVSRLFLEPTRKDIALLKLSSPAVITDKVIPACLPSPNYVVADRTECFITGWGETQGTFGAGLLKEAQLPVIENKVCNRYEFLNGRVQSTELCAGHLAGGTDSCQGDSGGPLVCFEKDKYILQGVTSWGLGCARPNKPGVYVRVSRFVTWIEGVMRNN

Take `CN[C@H]1C=C/C(=C/[C@H](NC(C)=O)C(=O)N[C@@H](/C=C2/C=C[C@H](NC(C)=O)CC2)C(=O)O)CC1`: the result in assay [1] and in assay [2] was Active.
